From patent US10973817B2, “Pharmaceutical compounds” (SENTINEL ONCOLOGY LIMITED, priority 2014, dated 2021)
Where a name gives a salt, the structure may show the parent alone.

Target: Chk-1 kinase (Homo sapiens (Human), UniProt O14757)
Assay: Chk-1 kinase inhibiting activity (33P-ATP filter-binding kinase assay)
Assay type: biochemical
Settings: against Chk-1 kinase; recombinant full length GST-tagged, 0.5 nM; CHKtide substrate 20 μM; 120 minutes at room temperature
Procedure: Chk-1 Kinase Inhibiting Activity
The compounds of the invention were tested for activity against Chk-1 kinase using the materials and protocols set out below.
Base Reaction buffer: 20 mM Hepes (pH 7.5), 10 mM MgCl2, 1 mM EGTA, 0.02% Brij35, 0.02 mg/ml BSA, 0.1 mM Na3VO4, 2 mM DTT, 1% DMSO • Required cofactors are added individually to each kinase reaction Reaction Procedure: (i) Prepare indicated substrate in freshly prepared Base Reaction Buffer (ii) Deliver any required cofactors to the substrate solution above (iii) Deliver indicated kinase into the substrate solution and gently mix (iv) Deliver compounds in DMSO into the kinase reaction mixture (v) Deliver ^33P-ATP (specific activity 0.01 μCi/μl final) into the reaction mixture to initiate the reaction. (vi) Incubate kinase reaction for 120 minutes at room temperature (vii) Reactions are spotted onto P81 ion exchange paper (Whatman #3698-915) (viii) Wash filters extensively in 0.1% phosphoric acid. (ix) Dry filters and measure counts in scintillation counter Kinase Information: CHK-1H—Genbank Accession # AF016582 Recombinant full length construct, N-terminal GST tagged, purified from insect cells. […]
From the results obtained by following the above protocol, the IC50 values against Chk-1 kinase of each of the compounds of Examples 1-153 were determined and these are shown in Table 3.

Sequence of Chk-1 kinase (O14757 whole entry): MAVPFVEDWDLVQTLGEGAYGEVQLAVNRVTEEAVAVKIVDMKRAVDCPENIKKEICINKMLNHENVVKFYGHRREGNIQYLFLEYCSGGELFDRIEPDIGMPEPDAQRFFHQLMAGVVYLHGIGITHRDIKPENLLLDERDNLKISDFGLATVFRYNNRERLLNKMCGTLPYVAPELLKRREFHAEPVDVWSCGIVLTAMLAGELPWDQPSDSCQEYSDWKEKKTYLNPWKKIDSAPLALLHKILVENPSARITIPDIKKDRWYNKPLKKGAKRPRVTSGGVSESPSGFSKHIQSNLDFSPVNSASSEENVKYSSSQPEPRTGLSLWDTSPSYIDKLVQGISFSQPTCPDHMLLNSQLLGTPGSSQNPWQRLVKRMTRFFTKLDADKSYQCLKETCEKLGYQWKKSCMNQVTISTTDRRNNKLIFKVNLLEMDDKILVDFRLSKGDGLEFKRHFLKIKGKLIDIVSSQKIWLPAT

Row | Compound | IC50
1 | COc1cc(CN2CC[C@H](OC)C2)ccc1-c1cc(Nc2cnc(C#N)cn2)n[nH]1 [Example 124, 5-[[5-[2-methoxy-4-[[(3S)-3-methoxypyrrolidin-1H-yl]methyl]phenyl]-1H-pyrazol-3-yl]amino]pyrazine-2-carbonitrile, hydrochloride] | 0.25 nM
2 | COc1cc(CN2CC[C@@H](OC)C2)ccc1-c1cc(Nc2cnc(C#N)cn2)n[nH]1 [Example 125, 5-[[5-[2-methoxy-4-[[(3R)-3-methoxypyrrolidin-1H-yl]methyl]phenyl]-1H-pyrazol-3-yl]amino]pyrazine-2-carbonitrile, hydrochloride] | 0.28 nM
